Assay results reported in ChEMBL document CHEMBL4376831, “Enhancing the Cell Permeability of Stapled Peptides with a Cyclic Cell-Penetrating Peptide” (J Med Chem, 2019).
The source made the active and inactive calls. No cut-off for these calls is given here. Where a SMILES comes first, the peptide text is derived from it. Bridges are numbered along the chain shown (N, C = ends). Roman numbers before positions name the chains, in order. [ ]: non-standard residue; d: D form. 2Nal = N[C@@H](Cc1ccc2ccccc2c1)C(=O)O; Dap = NC[C@H](N)C(=O)O; AEEA = NCCOCCOCC(=O)O

Legend:
[1] = Half life in human serum at 100 uM measured up to 24 hrs by RP-HPLC analysis; format: ADME, cell-free
[2] = target: T1, Catenin beta-1 (Homo sapiens) (UniProt P35222); assay: Inhibition of beta-catenin in human HCT116 cells assessed as reduction in axin2 mRNA expression; format: cell-based
T1 sequence (whole entry): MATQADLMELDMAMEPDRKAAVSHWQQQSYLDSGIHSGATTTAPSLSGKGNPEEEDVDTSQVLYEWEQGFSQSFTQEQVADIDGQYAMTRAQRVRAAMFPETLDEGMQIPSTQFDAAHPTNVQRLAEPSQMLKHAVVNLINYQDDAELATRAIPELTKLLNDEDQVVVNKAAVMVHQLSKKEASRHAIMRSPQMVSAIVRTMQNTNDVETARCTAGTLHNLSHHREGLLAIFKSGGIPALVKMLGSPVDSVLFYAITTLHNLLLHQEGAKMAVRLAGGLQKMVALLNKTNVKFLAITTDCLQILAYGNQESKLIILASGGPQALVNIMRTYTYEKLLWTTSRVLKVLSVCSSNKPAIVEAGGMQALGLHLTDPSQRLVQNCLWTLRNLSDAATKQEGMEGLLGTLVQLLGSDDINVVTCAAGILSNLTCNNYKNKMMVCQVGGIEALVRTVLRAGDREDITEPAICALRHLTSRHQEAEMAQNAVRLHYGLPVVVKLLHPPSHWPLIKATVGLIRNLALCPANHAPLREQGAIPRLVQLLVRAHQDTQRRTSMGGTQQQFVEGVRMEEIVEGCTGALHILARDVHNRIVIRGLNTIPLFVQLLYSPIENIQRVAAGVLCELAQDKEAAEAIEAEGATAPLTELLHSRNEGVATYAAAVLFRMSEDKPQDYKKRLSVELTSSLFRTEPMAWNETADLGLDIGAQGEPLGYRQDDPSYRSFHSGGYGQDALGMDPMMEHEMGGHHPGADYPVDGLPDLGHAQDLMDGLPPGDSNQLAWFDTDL

[3] = target: T1, Catenin beta-1 (Homo sapiens); assay: Inhibition of beta-catenin in human HCT116 cells assessed as reduction in myc mRNA expression; format: cell-based
SW480 [4] = assay: Antiproliferative activity against human SW480 cells incubated for 72 hrs by MTT assay; format: functional, cell-based
SW480 [5] = assay: Antiproliferative activity against human SW480 cells incubated for 72 hrs by MTT assay relative to control; format: functional
MCF7 = assay: Antiproliferative activity against human MCF7 cells up to 20 uM incubated for 72 hrs by MTT assay; format: functional, cell-based
[6] = target: T1, Catenin beta-1 (Homo sapiens); assay: Inhibition of beta-catenin in human SW480 cells assessed as reduction in myc mRNA expression; format: cell-based
[7] = target: T1, Catenin beta-1 (Homo sapiens); assay: Inhibition of beta-catenin in human SW480 cells assessed as reduction in axin2 mRNA expression; format: cell-based
[8] = target: T1, Catenin beta-1 (Homo sapiens); assay: Inhibition of beta-catenin in human SW480 cells assessed as reduction in LGR5 mRNA expression; format: cell-based
[9] = target: T1, Catenin beta-1 (Homo sapiens); assay: Inhibition of beta-catenin in human SW480 cells assessed as reduction in myc protein expression; format: cell-based
[10] = target: T1, Catenin beta-1 (Homo sapiens); assay: Inhibition of beta-catenin in human SW480 cells assessed as reduction in axin2 protein expression; format: cell-based
[11] = target: T1, Catenin beta-1 (Homo sapiens); assay: Inhibition of beta-catenin in human SW480 cells assessed as reduction in LGR5 protein expression; format: cell-based
[12] = target: T1, Catenin beta-1 (Homo sapiens); assay: Inhibition of beta-catenin in human HCT116 cells assessed as reduction in LGR5 mRNA expression; format: cell-based
[13] = target: T1, Catenin beta-1 (Homo sapiens); assay: Inhibition of beta-catenin in human HCT116 cells assessed as reduction in myc protein expression; format: cell-based
[14] = target: T1, Catenin beta-1 (Homo sapiens); assay: Inhibition of beta-catenin in human HCT116 cells assessed as reduction in axin2 protein expression; format: cell-based
[15] = target: T1, Catenin beta-1 (Homo sapiens); assay: Inhibition of beta-catenin in human HCT116 cells assessed as reduction in LGR5 protein expression; format: cell-based
SW480 [16] = assay: Induction of apoptosis in human SW480 cells at 25 uM incubated for 48 hrs by Annexin V/propidium iodide-staining based flow cytometric analysis relative to control; format: functional
DLD-1 = assay: Induction of apoptosis in human DLD1 cells at 25 uM incubated for 48 hrs by Annexin V/propidium iodide-staining based flow cytometric analysis relative to control; format: functional
SW480 [17] = assay: Induction of cell membrane disruption in human SW480 cells up to 50 uM incubated for 4 hrs by LDH assay relative to control; format: functional, cell-based
[18] = target: E3 ubiquitin-protein ligase Mdm2 (Homo sapiens, UniProt Q00987); assay: Displacement of TMR-labelled PDI from human GST tagged MDM2 (1 to 139 residues) expressed in Escherichia coli BL21 (DE3) cells preincuabted for 1 hr with TMR-labelled PDI followed by compound addition and measured after 1 hr by fluorescence polarization assay
Sequence of E3 ubiquitin-protein ligase Mdm2 (Q00987 whole entry, the tested form may be a part): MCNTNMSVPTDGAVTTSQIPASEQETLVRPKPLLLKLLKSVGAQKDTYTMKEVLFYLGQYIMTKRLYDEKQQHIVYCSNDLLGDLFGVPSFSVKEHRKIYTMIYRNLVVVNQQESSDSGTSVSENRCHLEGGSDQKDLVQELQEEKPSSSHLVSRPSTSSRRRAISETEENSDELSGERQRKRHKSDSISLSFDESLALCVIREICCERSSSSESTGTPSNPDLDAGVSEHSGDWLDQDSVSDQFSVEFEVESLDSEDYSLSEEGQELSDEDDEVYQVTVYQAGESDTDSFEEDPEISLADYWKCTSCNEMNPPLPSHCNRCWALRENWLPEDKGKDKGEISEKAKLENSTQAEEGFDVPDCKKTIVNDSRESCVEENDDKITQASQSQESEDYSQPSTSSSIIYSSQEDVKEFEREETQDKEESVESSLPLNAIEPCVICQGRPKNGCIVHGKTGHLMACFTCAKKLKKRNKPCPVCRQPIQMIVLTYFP

HeLa [19] = assay: Cytotoxicity against human HeLa cells incubated for 72 hrs using FAM-labeled compound by MTT assay; format: cell-based
HeLa [20] = assay: Induction of cell membrane disruption in human HeLa cells incubated for 4 hrs using FAM-labeled compound by LDH assay; format: cell-based
SJSA-1 = details: Homo sapiens

CC[C@H](C)[C@@H]1NC(=O)[C@@H](NC(=O)[C@H](CCC(=O)O)NC(=O)[C@@H]2CCCN2C(=O)[C@H](Cc2ccc(O)cc2)NC(=O)CNC(=O)CNC(C)=O)CC(=O)NCCCC[C@@H](C(=O)N[C@@H](Cc2cnc[nH]2)C(=O)N[C@@H](CC(C)C)C(=O)N[C@@H](CCC(N)=O)C(=O)N[C@@H](CCCNC(=N)N)C(=O)N[C@H](C(=O)N[C@H](C(=O)N[C@@H](CC(C)C)C(=O)NCCOCCOCC(=O)NCCOCCOCC(=O)N[C@@H](CNC(=O)CC[C@@H]2NC(=O)[C@@H](CCCNC(=N)N)NC(=O)[C@H](CCCNC(=N)N)NC(=O)[C@@H](CCCNC(=N)N)NC(=O)[C@H](CCCNC(=N)N)NC(=O)[C@H](Cc3ccc4ccccc4c3)NC(=O)[C@@H](Cc3ccccc3)NC2=O)C(N)=O)[C@@H](C)CC)C(C)C)NC(=O)[C@H](CC(=O)O)NC(=O)[C@H](CC(C)C)NC1=O (I: Ac-GGYPEDILDKHLQRVIL[AEEA][AEEA][Dap]-NH2 / II: cyclo([2Nal]R[dR]R[dR]E[dF]); lactam I:6-I:10; amide I:20-II:6)
half-life at 100 µM [1]: 2 h
inhibition [2]: Active
inhibition [3]: Active
Activity (SW480 [4]): Dose-dependent effect
EC50 (SW480 [4]; SW480, 72 h): 1200 nM
Activity (SW480 [5]): 60%
Activity (MCF7): inactive
inhibition [6]: Active
inhibition [7]: Active
inhibition [8]: Active
inhibition [9]: Active
inhibition [10]: Active
inhibition [11]: Active
inhibition [12]: Active
inhibition [13]: Active
inhibition [14]: Active
inhibition [15]: Active
Activity (SW480 [16]): 10%
Activity (DLD-1): 10%
Activity (SW480 [17]): inactive

CC(=O)N[C@@H](CC(C)C)C(=O)N[C@H](C(=O)N[C@@H](C)C(=O)N[C@H]1CC(=O)NCCCC[C@@H](C(=O)N[C@@H](CCC(N)=O)C(=O)N[C@@H](CC(C)C)C(=O)N[C@H](C(=O)N[C@@H](CO)C(=O)NCCOCCOCC(=O)N[C@@H](CCCCNC(=O)CC[C@@H]2NC(=O)[C@@H](CCCNC(=N)N)NC(=O)[C@H](CCCNC(=N)N)NC(=O)[C@@H](CCCNC(=N)N)NC(=O)[C@H](CCCNC(=N)N)NC(=O)[C@H](Cc3ccc4ccccc4c3)NC(=O)[C@@H](Cc3ccccc3)NC2=O)C(N)=O)[C@@H](C)O)NC(=O)[C@H](Cc2c[nH]c3ccccc23)NC(=O)[C@H](Cc2ccc(O)cc2)NC(=O)[C@H](Cc2cnc[nH]2)NC1=O)[C@@H](C)O
IC50 [18]: > 20000 nM
Activity (HeLa [19]): Toxic
Activity (HeLa [20]): Toxic
Activity (SJSA-1): inactive
